Patent US20100331384A1, “GUANIDINE BASED COMPOUNDS” (UNIVERSIDAD DEL PAIS VASCO/EUSKAL HERRIKO UNIBERTSITATEA, priority 2007, published 2010)

Experiments:
[1] = biological target: T1, α2-ARs (Homo sapiens, UniProt P08913); experiment: [3H]RX821002 competition binding assay in human brain PFC membranes; conditions: human brain tissue in vitro
T1 construct: other: human brain tissue in vitro; other: stimulation of [35S]GTPγS b

[2] = biological target: T1, α2-ARs; experiment: [35S]GTPγS binding functional assay, compounds alone; format: biochemical; conditions: for agonistic or antagonistic properties in [35S]GTPγS experiments: human brain PFC; for stimulation of [35S]GTPγS binding by the compound on its own: human brain PFC membranes
Procedure: The [^35S]GTPγs binding assay constitutes a functional measure of the interaction of the receptor and the G-protein and is a useful tool to distinguish between agonists (increasing the nucleotide binding), inverse agonists (decreasing the nucleotide binding), and neutral antagonists (not affecting the nucleotide binding) of GPCRs.^20 Experiments were performed in low-affinity receptor conditions for agonists (presence of guanine nucleotides and sodium in the medium), and therefore, typical potency values are two-three logarithmic units lower than affinity values obtained in radioligand receptor binding experiments.^20
(§1) Preparation of membranes. Neural membranes (P2 fractions) were prepared from the PFC of human brains obtained at autopsy in the Instituto Vasco de Medicina Legal, Bilbao, Spain. Postmortem human brain samples of each subject (˜1 g) were homogenized using a Teflon-glass grinder (10 up-and-down strokes at 1500 rpm) in 30 volumes of homogenization buffer (1 mM MgCl2, and 5 mM Tris-HCl, pH 7.4) supplemented with 0.25 M sucrose. The crude homogenate was centrifuged for 5 min at 1000×g ([…]) and the supernatant was centrifuged again for 10 min at 40000×g (4° C.). The resultant pellet was washed twice in 20 volumes of homogenization buffer and recentrifuged in similar conditions. Aliquots of 1 mg protein were stored at −70° C. until assay.
[^35S]GTPγs binding assays. The incubation buffer for measuring [^35S]GTPγs binding to brain membranes contained, in a total volume of 500 μL, 1 mM EGTA, 3 mM MgCl2, 100 mM NaCl, […], 50 mM Tris-HCl at pH 7.4 and 0.5 nM [^35S]GTPγs. Proteins aliquots were thawed and re-suspended in the same buffer. The incubation was started by addition of the membrane suspension (40 μg of membrane proteins) to the previous mixture and was performed at 30° C. for 120 min with shaking. In order to evaluate the influence of the compounds on [^35S]GTPγs binding, 8 concentrations (10^−10 to 10^−3M) of the different compounds were added to the assay. Incubations were terminated by adding 3 mL of ice-cold re-suspension buffer followed by rapid filtration through Whatman GF/C filters pre-soaked in the same buffer. The filters were rinsed twice with 3 mL of ice-cold re-suspension buffer, transferred to vials containing 5 mL of OptiPhase HiSafe II cocktail (Wallac, UK) and the radioactivity trapped was determined by liquid scintillation spectrometry (Packard 2200CA). […] Non-specific binding of the radioligand was defined as the remaining [^35S]GTPγs binding in the presence of 10 μM unlabelled GTPγs.

[3] = tested on: mice; experiment: Tail suspension test; format: in vivo; conditions: compared with saline control, FIG. 4
Excerpt: The tail suspension test as illustrated in FIG. 4 has become one of the most widely used models for assessing antidepressant-like activity in mice. The test is based on the fact that animals subjected to the short-term, inescapable stress of being suspended by their tail, will develop an immobile posture. Antidepressant medications encourage the animal to struggle and promote the occurrence of escape-related behaviour.

[4] = tested on: extracellular NA levels in the PFC; experiment: In vivo microdialysis in the PFC, extracellular NA; design: species or system male Sprague Dawley rats; conditions: for ability to cross the blood brain barrier (BBB): deduced from NA increase after systemic administration; for Emax of increase in extracellular NA levels: local administration by reverse dialysis 1-100 μM in PFC, percentage of basal values; for α2-AR antagonist properties in vivo: local and systemic administration, rats; for increase of NA extracellular concentration, maximal effect: systemic (intraperitoneal) administration, evaluated in PFC
Excerpt: Intracerebral microdialysis is a neurochemical technique that has been applied extensively in pharmacological studies aimed at investigating the effect of different drugs on brain neurotransmission. This technique allows one to collect a representative concentration of different neurotransmitters of the area where the probe is implanted while the animals are awake and freely moving.^21
Most antidepressant drugs are able to increase NA extracellular concentrations in different brain areas as the PFC, an area implicated in depression disease. Considering that α2-ARs exert a tonic inhibitory action on NA release from the noradrenergic terminals we assessed the ability of these two new compounds to increase NA extracellular concentration in this area. First, we tested the drugs when administered locally in order to confirm their antagonistic activity over α2-ARs in vivo.
A second step was to study the effect of these compounds increasing NA extracellular concentrations when administered systemically.
In Vivo Microdialysis assays. The experiments were carried out in male Sprague Dawley rats weighing between 250 g and 300 g. At the beginning of the experiments, animals were anaesthetized with chloral hydrate (400 mg/kg i.p.) and a microdialysis probe was implanted by stereotaxic surgery into prefrontal cortex (PFC) brain area. The coordinates selected for the PFC were as follows: AP (anterior to bregma) +2.8 mm, L (lateral from the mid-sagittal suture) +1 mm, DV (ventral from the dura surface) −5 mm.^22 After 24 hours for animal recovery, perfusion fluid (artificial cerebrospinal fluid) is pumped through the probe at a flow rate of 1 μl/min. In the semipermeable membrane, that is the critical side of the probe and is placed on the selected area, molecules flow into and out the cannulae by diffusion. Therefore, microdialysis technique allows local administration of substrates dissolved in the perfusion fluids.
When drugs were locally administered, they were dissolved in a CSF and applied during 70 min via dialysis probe implanted in the PFC in increasing concentrations of 1, 10 and 100 μM. The compounds systemically administered were dissolved in saline and injected intraperitoneally.
Samples, collected with the microdialysis procedure (every 35 min), were analyzed by HPLC with electrochemical detection. NA concentrations were monitorizated by an amperometric detector (Hewlett-Packard model 1049A) at an oxidizing potential of +650 mV. The movil phase (12 mM citric acid, 1 mM EDTA, 0.7 mM octylsodio sulfate, pH 5 and 10% methanol) was filtered, degassed (Hewlett-Packard model 1100 degasser) and delivered at a flow rate of 0.2 ml/min by a Hewlett-Packard model 1100 pump. Stationary phase was a column of 150×2.1 mm (Thermo Electron Corporation, U.S.A.). Samples (injection volume 37 μl) were injected and NA analized in a run time of 10 min. Solution of standard noradrenaline was injected every working day to create a new calibration table.
The mean values of the first three samples before substrate administration were considered as 100% basal value. All measures of extracellular NA concentrations are expressed as percentage of the baseline value±s.e.mean. One way analysis of variance (ANOVA) for control group or two way ANOVA between control and each treated group was assessed for statistical analysis. After the experiments, rats were sacrificed with an overdose of chloral hydrate and the brains were dissected to check the correct implantation of the probe.

[5] = biological target: T1, α2-ARs; experiment: [3H]RX821002 competition binding assay in human brain PFC membranes; conditions: human brain PFC tissue, competition with [3H]RX821002 1 nM
Procedure: as §1
[^3H]RX821002 binding assays. […] Incubations were terminated by diluting the samples with 5 ml of ice-cold Tris incubation buffer (4° C.). Membrane bound [^3H]RX821002 was separated by vacuum filtration through Whatman GF/C glass fibre filters. Then, the filters were rinsed twice with 5 ml of incubation buffer and transferred to minivials containing 3 ml of OptiPhase “HiSafe” II cocktail and counted for radioactivity by liquid scintillation spectrometry. Specific binding was determined and plotted as a function of the compound concentration. Non-specific binding was determined in the presence of adrenaline (10^−5 M).
Analysis of binding data. Analysis of competition experiments to obtain the inhibition constant (Ki) were performed by nonlinear regression using the GraphPad Prism program. All experiments were analysed assuming a one-site model of radioligand binding. Ki values were normalized to pKi values.

[6] = tested on: cloned human α2-AR receptor; conditions: disclosed in WO9846572; cited from earlier work

T1 sequence (P08913 whole entry): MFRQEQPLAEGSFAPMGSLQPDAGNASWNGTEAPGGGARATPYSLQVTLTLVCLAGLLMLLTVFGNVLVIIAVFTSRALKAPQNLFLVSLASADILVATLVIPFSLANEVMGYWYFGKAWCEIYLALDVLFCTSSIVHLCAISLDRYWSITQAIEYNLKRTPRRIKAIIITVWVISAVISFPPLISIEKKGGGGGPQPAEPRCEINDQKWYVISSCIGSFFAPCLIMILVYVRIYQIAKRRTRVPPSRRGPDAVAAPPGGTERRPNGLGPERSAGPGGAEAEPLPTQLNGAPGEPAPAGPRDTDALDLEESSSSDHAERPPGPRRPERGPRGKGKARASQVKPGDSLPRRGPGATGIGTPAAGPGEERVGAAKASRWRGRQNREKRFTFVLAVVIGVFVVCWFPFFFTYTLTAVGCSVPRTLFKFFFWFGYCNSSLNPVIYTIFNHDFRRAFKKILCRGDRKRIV

Structure (SMILES)	affinity towards the α2-ARs compared with references [1]	agonistic or antagonistic properties in [35S]GTPγS experiments [2]	stimulation of [35S]GTPγS binding by the compound on its own [2]	immobility period [3]	ability to cross the blood brain barrier (BBB) [4]	Emax of increase in extracellular NA levels [4] [%]	α2-AR antagonist properties in vivo [4]	increase of NA extracellular concentration, maximal effect [4] [%]	affinity for the α2-ARs expressed as pKi [5]	Emax ([2]; read-out: Emax (%), percentage efficacy relative to UK14304) [%]	activity at cloned human α2-AR receptor [6]
N=C(N)Nc1ccc2c(c1)CCCC2 [Compound 17b, N-(5,6,7,8-tetrahydro-naphthalen-2-yl)-guanidine]	within the range of those of Idazoxan and/or Clonidine	antagonistic properties	did not stimulate binding	slightly shorter immobility period than the saline control	able to cross the blood brain barrier	326±113	α2-AR antagonist properties in vivo	373±73			
COC1(C2=NCCN2)COc2ccccc2O1 (centres unmarked) [RX821002, 2-methoxy-idazoxan, reference compound]						287±49			9.04		
c1cc(NC2=NCCN2)ccc1CCc1ccc(NC2=NCCN2)cc1 [Compound 20b, 4,4′-di(2-imidazolidinylimino)-1,2-diphenylethane]	within the range of those of Idazoxan and/or Clonidine	antagonistic properties	did not stimulate binding	slightly shorter immobility period than the saline control	able to cross the blood brain barrier	255±76	α2-AR antagonist properties in vivo	156±35			
c1cc2c(cc1NC1=NCCN1)CCC2 [Compound 9b, 5-(2-imidazolidinylimino)indan]	within the range of those of Idazoxan and/or Clonidine	agonistic properties	stimulated binding							98	agonist
